From patent USRE30241E, “Esters of 3-(hydroxy or hydroxymethyl)-4-hydroxyphenyl aminomethyl ketones” (Sterling Drug Inc., priority 1970, dated 1980) come the findings set out here.

Series [1] concerns guinea pig bronchioles constricted by carbachol. In words: Bronchodilator Test Method II, in vitro perfused guinea pig lung. On the procedure: In this method bronchodilator activity in vitro was determined by testing the effect of graded doses of the test compounds on guinea pig bronchioles constricted by carbachol, using the technique reported by Sollman and von Oettingen, Proc. Soc, Exp. Biol. Med., 25,692 (1928) as modified by Tainter, Pedden, and James, J. Pharm. Exp. Ther., 51, 371 (1934) and by Luduena, von Euler, Tullar, and Lands, Arch. intern. Pharmacol., III, 392 (1957).

Series [2] can be described thus: Solubility and pH of salts.
For series [3], the system named is carbachol- or histamine-induced bronchoconstriction. Briefly: Bronchodilator Test Method I, anesthetized dog, intravenous activity. The format is in vivo. The conditions noted are these: Canis lupus familiaris, read-out: Bronchodilatation; for inhibition in vivo at 0.0005 mg/kg: 0.5 mcg/kg i.v.; for inhibition in vivo at 0.006 mg/kg: 6.0 mcg/kg i.v.; for inhibition in vivo at 0.025 mg/kg: 25 mcg/kg i.v.; for inhibition in vivo at 0.1 mg/kg: 100 mcg/kg i.v. An outline of the steps:
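Pentobarbital-anesthetized (30 mg/kg i.v.), open-chest, artificially ventilated dogs were given i.v. carbachol (4-6 µg/kg) or histamine diphosphate (35-45 µg/kg). Test compound was given i.v. mixed with, after, or 1-10 min before the constrictor.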

Series [4] shares this test system. In words: Bronchodilator Test Method I, anesthetized dog, intraduodenal activity. The format is in vivo. The following applies: Canis lupus familiaris, read-out: Bronchodilation; for inhibition in vivo at 0.005 mg/kg: 5 mcg/kg (salt) intraduodenal; for inhibition in vivo at 0.04 mg/kg: 40 mcg/kg (salt) intraduodenal; for inhibition in vivo at 0.16 mg/kg: 160 mcg/kg (salt) intraduodenal. In outline: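 Pentobarbital-anesthetized (30 mg/kg i.v.) open-chest dogs of 9-18 kg, artificially ventilated; airway pressure recorded via tracheal cannula transducer. Test solution injected intraduodenally; from 5 min, i.v. carbachol (4-6 μg/kg) or histamine diphosphate (35-45 μg/kg) challenges every 30-60 min gauged degree and duration of bronchodilation.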

The test system of another series is heart rate. In words: Cardiovascular studies: effect on the heart rate in the anesthetized dog. The format is in vivo. On the procedure: The effect of a rapid intravenous injection on the heart rate the heart rate was conducted in anesthetized dogs under normal respiration. A few open-chest dogs were also tested. Increase in heart rate was measured by using an electrocardiograph attached to the dog. Readings were taken every 0.5-1 minute for the first 10 minutes and every 2-5 minutes thereafter until recovery. In some cases, several doses and more than one compound were tested alternately in the same dog. The blood pressure effect was simultaneously recorded.

Setting [5] is: 1 percent solution in dimethyl sulfoxide.
Where [6] appears, read: 1 percent solution in glycerol formal.

Counter-ions that a name gives are not always drawn. Like-named read-outs stand apart in the source and are kept apart here.

For the compound `CC(C)CC(=O)Oc1ccc(C(O)CNC(C)(C)C)cc1O` (stereo not drawn) [Example 58, 3-hydroxy-4-(isovaleryloxy)-alpha-(tert-butylaminomethyl)benzyl alcohol methanesulfonate], in series [1] (carbachol (Doryl) 1:5 million), the ED50 was 1.4 µg (base). For the same compound, the “Duration, Mean” value in series [1] (dose 2.4 mcg (base)) stood at 12 ± 2.5 min. Besides, the solubility in series [2] (water) was at least 50 mg/mL.
For the compound `Cc1ccc(C(=O)Oc2ccc(C(O)CNC(C)(C)C)cc2O)cc1` (stereo not drawn) [Example 69, 3-hydroxy-4-(p-toluyloxy)-alpha-(tert-butylaminomethyl)benzyl alcohol methanesulfonate], the solubility in series [2] (water) was at least 50 mg/mL.
For `COc1ccc(C(=O)Oc2ccc(C(O)CNC(C)(C)C)cc2OC(=O)c2ccc(OC)cc2)cc1.Cl` (stereo not drawn) [Example 33, 3,4-bis(p-anisoyloxy)-alpha-(tert-butylaminomethyl)benzyl alcohol hydrochloride], the ED50 in series [1] (carbachol (Doryl) 1:5 million) was 6.9 µg (base). In series [1] (dose 10 mcg (base)), the “Duration, Mean” value amounted to 32 ± 5 min. Moreover, the “precipitation on dilution with three volumes of water” value in series [2] (setting [5]) and in series [2] (setting [6]) was “no precipitate formed” throughout. Further, the solubility in series [2] (polyethyleneglycol 200, organic solvent or mixture) was under 10 mg/mL.
As to `CC(C)CC(=O)Oc1cc(C(O)CNC(C)(C)C)ccc1OC(=O)C(C)(C)C.Cl` (stereo not drawn) [Example 71, 3-(isovaleryloxy)-4-(pivalyloxy)-alpha-(tert-butylaminomethyl)benzylalcohol hydrochloride], the ED50 in series [1] (carbachol (Doryl) 1:5 million) is 0.63 µg (base). For the same compound, the “Duration, Mean” value in series [1] (dose 2 mcg (base)) turned out to be 26 min. Besides, in series [2] (water), the solubility is at least 50 mg/mL.
In the case of `CC(C)(C)NCC(O)c1ccc(OC(=O)c2ccccc2)c(OC(=O)c2ccccc2)c1.Cl` (stereo not drawn) [Example 29, 3,4-bis(benzoyloxy)-alpha-(tert-butylaminomethyl)benzyl alcohol hydrochloride], the ED50 in series [1] (carbachol (Doryl) 1:5 million) is 1.1 µg (base). Also, in series [1] (dose 3.2 mcg (base)), the “Duration, Mean” value stood at 34 ± 6.4 min. In addition, the “precipitation on dilution with three volumes of water” value in series [2] (setting [5]) and in series [2] (setting [6]) was “no precipitate formed” in each case. The solubility in series [2] (dimethyl sulfoxide, organic solvent or mixture) is at least 10 mg/mL; in series [2] (glycerol formal, organic solvent or mixture), at least 10 mg/mL.
As for `CC(C)(C)NCC(=O)c1ccc(OC(=O)C(C)(C)C)c(OC(=O)C(C)(C)C)c1.Cl` [3,4-bis(pivalyloxy)phenyl tert-butylaminomethyl ketone hydrochloride], the solubility in series [2] (water) is at least 10 mg/mL.
For the compound `Cc1ccc(C(=O)Oc2ccc(C(=O)CNC(C)(C)C)cc2OC(=O)c2ccc(C)cc2)cc1` [3,4-bis(p-toluyloxy)phenyl tert-butylaminomethyl ketone hydrochloride], the solubility in series [2] (water) was under 1 mg/mL.
Turning to `CCCC(C)(C)C(=O)Oc1ccc(C(O)CNC(C)(C)C)cc1OC(=O)C(C)(C)CCC` (stereo not drawn) [Example 8, 3,4-bis(2,2-dimethylpentanoyloxy)-alpha-(tert-butylaminomethyl)benzyl alcohol], the solubility in series [2] (water) was at least 50 mg/mL.
For the compound `COc1ccc(C(=O)Oc2cc(C(O)CNC(C)(C)C)ccc2OC(C)=O)cc1` (stereo not drawn) [Example 149, 3-(p-anisoyloxy)-4-acetoxy-alpha-(tert-butylaminomethyl)benzyl alcohol methanesulfonate], the ED50 in series [1] (Doryl conc. 1:10 million) was 0.91 µg (base). Moreover, the “Duration, Mean” value in series [1] (dose 2 mcg (base), Doryl conc. 1:10 million) is reported as 13.2 ± 1.9 min. The inhibition in vivo at 0.0005 mg/kg in series [3] (5 min, 5 min) came to 54%; in series [3] (0.5 h, 30 min), 19%; in series [3] (1 h, 60 min), 19%. The inhibition in vivo at 0.006 mg/kg in series [3] (5 min, 5 min) worked out at 100%; in series [3] (0.5 h, 30 min), 32%; in series [3] (1 h, 60 min), 24%. The inhibition in vivo at 0.005 mg/kg came out at 0% in series [4] (5 min, 5 min); 7% in series [4] (0.5 h, 30 min); 13% in series [4] (1 h, 60 min); 5% in series [4] (2 h, 120 min); 9% in series [4] (3 h, 180 min); 0% in series [4] (4 h, 240 min). In addition, the inhibition in vivo at 0.04 mg/kg was determined as 78% in series [4] (5 min, 5 min); 52% in series [4] (0.5 h, 30 min); 44% in series [4] (1 h, 60 min); 31% in series [4] (2 h, 120 min); 35% in series [4] (4 h, 240 min); 35% in series [4] (5 h, 300 min). Besides, the inhibition in vivo at 0.16 mg/kg in series [4] (5 min, 5 min) amounted to 72%; in series [4] (0.5 h, 30 min), 61%; in series [4] (1 h, 60 min), 56%; in series [4] (2 h, 120 min), 11%; in series [4] (3 h, 180 min), 22%; in series [4] (4 h, 240 min), 23%. Moreover, the figures for the “Mean Maximal Increase in the Heart Rate” value in the series with heart rate (0.8 mcg/kg (salt) i.v.), in the series on heart rate (6.4 mcg/kg (salt) i.v.) and with heart rate (32 mcg/kg (salt) i.v.) were 19 Beats/Minute, 47 Beats/Minute and 70 Beats/Minute, respectively.
Turning to `CCCC(=O)Oc1ccc(C(O)CNC(C)(C)C)cc1OC(=O)CCC.Cl` (stereo not drawn) [Example 1, 3,4-bis(butyryloxy)-alpha-(tert-butylaminomethyl)benzyl alcohol hydrochloride], in series [1] (carbachol (Doryl) 1:5 million), the ED50 was 0.23 µg (base). The “Duration, Mean” value in series [1] (dose 0.5 mcg (base)) stood at 9 ± 1.0 min. Besides, the “pH of a 1 percent aqueous solution” value in series [2] (1 percent aqueous solution of the salt) is 6.0. The “precipitation on raising pH to 7.0” value in series [2] (1 percent aqueous solution, N/10 sodium hydroxide to pH 7.0) is on record as “a precipitate formed”. Also, the solubility in series [2] (water) was at least 200 mg/mL.
`Cc1cccc(C(=O)Oc2ccc(C(O)CNC(C)(C)C)cc2O)c1` (stereo not drawn) [Example 139, 3-hydroxy-4-(m-toluyloxy)-alpha-(tert-butylaminomethyl)benzyl alcohol methanesulfonate]: in series [1] (carbachol (Doryl) 1:5 million), the ED50 was 2.64 µg (base). Further, in series [1] (dose 6 mcg (base)), the “Duration, Mean” value was 29.8 ± 4.4 min. In addition, the inhibition in vivo at 0.025 mg/kg was 81% in series [3] (5 min, 5 min); 22% in series [3] (0.5 h, 30 min); 24% in series [3] (1 h, 60 min); 0% in series [3] (2 h, 120 min). Further, the inhibition in vivo at 0.1 mg/kg in series [3] (5 min, 5 min) amounted to 74%; in series [3] (0.5 h, 30 min), 63%; in series [3] (1 h, 60 min) it was 22%; in series [3] (2 h, 120 min), 25%; in series [3] (3 h, 180 min), 9%; in series [3] (5 h, 300 min) it was 10%. In addition, the “Mean Maximal Increase in the Heart Rate” value turned out to be 6 Beats/Minute in the series with heart rate (5 mcg/kg (salt) i.v.), 28 Beats/Minute with heart rate (25 mcg/kg (salt) i.v.) and 35 Beats/Minute with heart rate (50 mcg/kg (salt) i.v.).
